IC50 and inhibition data for 23 compounds are collected here from patent EP0970046B1, “N-HYDROXY-2-(ALKYL, ARYL, OR HETEROARYL SULFANYL, SULFINYL OR SULFONYL)-3-SUBSTITUTED ALKYL, ARYL OR HETEROARYLAMIDES AS MATRIX METALLOPROTEINASE INHIBITORS” (Wyeth Holdings Corporation, priority 1997, dated 1998).

Structures can show the parent of a compound that is named as a salt. Where two headings read alike, the source gives them in different places.

What all share (assay type): biochemical
One experiment concerns the target T1, MMP 9 (Homo sapiens, UniProt P14780).
T1 construct: from tissue; host or cells: human neutrophils
The experiment can be described thus: In Vitro Gelatinase Assay. The note with it: for IC50: read-out: MMP 9 IC 50; for inhibition at 1 µM: read-out: MMP 9 % inhibition at 1 micromolar, 1 micromolar. The procedure:
The assay is based on the cleavage of the thiopeptide substrate ((Ac-Pro-Leu-Gly(2 mercapto-4 methyl-pentanoyl)-Leu-Gly-OEt), Bachem Bioscience) by the enzyme, gelatinase, releasing the substrate product which reacts colorimetrically with DTNB ((5,5'-dithio-bis(2-nitro-benzoic acid)). The enzyme activity is measured by the rate of the color increase. The thiopeptide substrate is made up fresh as a 20 mM stock in 100% DMSO and the DTNB is dissolved in 100% DMSO as a 100 mM stock and stored in dark at room temperature. Both the substrate and DTNB are diluted together to 1 mM with substrate buffer (50 mM HEPES pH 7.5, 5 mM CaCl2) before use. […] The increase in OD405 is plotted and the slope of the line is calculated which represents the reaction rate. The linearity of the reaction rate is confirmed (r^2 >0.85). The mean (x ± sem) of the control rate is calculated and compared for statistical significance (p <0.05) with drug-treated rates using Dunnett's multiple comparison test.

A further experiment addresses MMP 13 (Homo sapiens, UniProt P45452). The experiment can be described thus: MMP 13 inhibition (IC50 / manual assay; method not described). The note with it: for IC50: read-out: MMP 13 IC 50.
Another experiment has as its target T2, TACE (Homo sapiens, UniProt P78536).
T2 construct: purchased Immunex
The experiment is described as follows: Procedure for Measuring TACE Inhibition. The note with it: for inhibition at 1 µM: read-out: TACE % inhibition at 1 micromolar; for IC50: read-out: TACE IC 50. The method, boiled down: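 Single-concentration screen: test compound at 1 µM final, 10-min room-temperature preincubation with 1 µg/mL protease in Tris pH 7.4 buffer containing glycerol. Initial rate from linear fluorescence increase (340/420 nm) over 10 min after adding 100 µM peptidyl substrate; significance versus control rate by Dunnett's test.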

A further experiment deals with T3, MMP 1 (Homo sapiens, UniProt P03956).
T3 construct: human recombinant fibroblast collagenase (truncated, mw= 18,828, WAR, Radnor)
T3 sequence (P03956 100-269 limits assumed): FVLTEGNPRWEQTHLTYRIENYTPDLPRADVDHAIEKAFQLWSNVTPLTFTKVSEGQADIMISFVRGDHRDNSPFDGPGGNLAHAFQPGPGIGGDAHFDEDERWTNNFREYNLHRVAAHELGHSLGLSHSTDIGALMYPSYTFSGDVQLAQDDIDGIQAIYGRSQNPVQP
The experiment can be described thus: In Vitro Collagenase Assay. The note with it: for IC50: read-out: MMP 1 IC 50. The procedure:
The assay is based on the cleavage of a peptide substrate ((Dnp-Pro-Cha-Gly-Cys(Me)-His-Ala-Lys(NMa)-NH2), Peptide International, Inc.) by collagenase releasing the fluorescent NMa group which is quantitated on the fluorometer. Dnp quenches the NMa fluorescence in the intact substrate. […] Substrate is dissolved in methanol and stored frozen in 1 mM aliquots. […] For the assay, substrate is dissolved in HCBC buffer to a final concentration of 10 µM and collagenase to a final concentration of 5 nM. Compounds are dissolved in methanol, DMSO, or HCBC. The methanol and DMSO are diluted in HCBC to < 1.0%. Compounds are added to the 96 well plate containing enzyme and the reaction is started by the addition of substrate.
The slope of the line is calculated and represents the reaction rate.
The linearity of the reaction rate is confirmed (r^2 >0.85). The mean (x ± sem) of the control rate is calculated and compared for statistical significance (p <0.05) with drug-treated rates using Dunnett's multiple comparison test.

The mark [1] stands for this setting: human recombinant fibroblast collagenase.

T1 sequence (P14780 94-707): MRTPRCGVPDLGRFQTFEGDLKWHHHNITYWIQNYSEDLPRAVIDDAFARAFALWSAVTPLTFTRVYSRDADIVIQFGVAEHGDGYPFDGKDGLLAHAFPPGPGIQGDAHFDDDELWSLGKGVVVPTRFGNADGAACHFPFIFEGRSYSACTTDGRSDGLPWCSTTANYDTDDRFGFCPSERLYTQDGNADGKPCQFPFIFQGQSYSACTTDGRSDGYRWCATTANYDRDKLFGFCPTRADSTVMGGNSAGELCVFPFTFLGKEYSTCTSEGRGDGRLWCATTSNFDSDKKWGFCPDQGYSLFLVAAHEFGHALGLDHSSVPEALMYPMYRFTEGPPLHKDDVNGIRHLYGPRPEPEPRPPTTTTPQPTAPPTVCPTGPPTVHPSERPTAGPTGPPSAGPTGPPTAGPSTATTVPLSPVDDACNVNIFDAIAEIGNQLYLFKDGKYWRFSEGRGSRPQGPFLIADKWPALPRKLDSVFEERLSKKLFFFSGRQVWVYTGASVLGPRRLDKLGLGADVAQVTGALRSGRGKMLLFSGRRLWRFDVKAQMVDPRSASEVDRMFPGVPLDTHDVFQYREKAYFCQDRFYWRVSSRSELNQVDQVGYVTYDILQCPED
T2 sequence (P78536 215-824): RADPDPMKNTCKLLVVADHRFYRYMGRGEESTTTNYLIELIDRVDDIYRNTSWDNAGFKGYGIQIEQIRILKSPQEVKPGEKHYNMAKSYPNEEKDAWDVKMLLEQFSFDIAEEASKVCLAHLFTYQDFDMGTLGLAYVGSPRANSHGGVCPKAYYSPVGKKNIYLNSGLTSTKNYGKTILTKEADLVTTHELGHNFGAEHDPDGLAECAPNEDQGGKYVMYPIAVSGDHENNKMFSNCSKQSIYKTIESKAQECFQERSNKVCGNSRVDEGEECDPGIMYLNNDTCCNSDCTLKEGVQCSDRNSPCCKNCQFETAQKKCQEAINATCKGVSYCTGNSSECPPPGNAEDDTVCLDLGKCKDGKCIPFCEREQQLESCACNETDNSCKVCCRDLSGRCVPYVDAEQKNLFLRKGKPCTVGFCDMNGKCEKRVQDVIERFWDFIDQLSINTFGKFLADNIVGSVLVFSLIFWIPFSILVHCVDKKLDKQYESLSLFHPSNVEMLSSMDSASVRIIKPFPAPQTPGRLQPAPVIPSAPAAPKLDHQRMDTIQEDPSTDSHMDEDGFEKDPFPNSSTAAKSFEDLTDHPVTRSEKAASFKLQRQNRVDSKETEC

On to `COc1ccc(SC(C)(Cc2ccccc2)C(=O)NO)cc1` (stereo not drawn) [Example 1, N-Hydroxy-2-(4-methoxy-phenylsulfanyl)-2-methyl-3-phenyl-propionamide], for which the IC50 on MMP 9 (human neutrophil gelatinase B) was determined as 0.56 µM; on MMP 13, 0.193 µM. Moreover, the inhibition at 1 µM on TACE was 31.6%.

Turning to `COc1ccc(SC(C(=O)NO)c2ccccc2)cc1` (stereo not drawn) [Example 2, N-Hydroxy-2-(4-methoxy-phenylsulfanyl)-2-phenyl-acetamide], the figures for the inhibition at 1 µM at MMP 9 (human neutrophil gelatinase B) and on MMP 13 (read-out: MMP 13 % inhibition at 1 micromolar) were 10.5% and 0%, respectively. Moreover, the IC50 on TACE worked out at 0.403 µM.

With `COc1ccc(SC(C)(CC=C(C)C)C(=O)NO)cc1` (stereo not drawn) [Example 3, 2-(4-Methoxy-phenylsulfanyl)-2,5-dimethyl-hex-4-enoic acid hydroxyamide], the figures for the IC50 on MMP 9 (human neutrophil gelatinase B) and at MMP 13 were 0.309 µM and 0.169 µM, respectively. The inhibition at 1 µM on TACE came to 27.4%.

For the compound `COc1ccc([S+]([O-])C(C)(Cc2ccccc2)C(=O)NO)cc1` (stereo not drawn) [Example 5, N-Hydroxy-2-(4-methoxy-benzenesulfinyl)-2-methyl-3-phenyl-propionamide], the IC50 at MMP 9 (human neutrophil gelatinase B) is 0.0077 µM; on MMP 13, 0.0047 µM. Moreover, the inhibition at 1 µM at TACE stood at 25%.

On to `COc1ccc(S(=O)(=O)C(C)(Cc2ccc(-c3ccccc3)cc2)C(=O)NO)cc1` (stereo not drawn) [Example 14, 3-(Biphenyl-4-yl)-N-hydroxy-2-(4-methoxy-benzenesulfonyl)-2-methyl-propionamide], for which the IC50 is 0.158 µM on MMP 1 (setting [1]) and 0.023 µM on MMP 9 (human neutrophil gelatinase B). Moreover, the inhibition at 1 µM at TACE was 17.2%.

`COc1ccc(S(=O)(=O)C(C)(Cc2ccc(OCCN3CCCCC3)cc2)C(=O)NO)cc1` (stereo not drawn) [Example 17, N-Hydroxy-2-(4-methoxy-benzenesulfonyl)-2-methyl-3-[4-(2-piperidin-1-yl-ethoxy)-phenyl]-propionamide]: the results for the IC50 on MMP 1 (setting [1]) and on MMP 9 (human neutrophil gelatinase B) were 0.239 µM and 0.0089 µM, respectively. Further, the inhibition at 1 µM on TACE was determined as 41%.

Take `COc1ccc(S(=O)(=O)C(C)(Cc2ccc(OCCN3CCCCCC3)cc2)C(=O)NO)cc1` (stereo not drawn) [Example 18, 2-[4-(2-Azepan-1-yl-ethoxy)-benzyl]-2-(4-methoxy-benzenesulfonyl)-propionic acid hydroxyamide]: the IC50 worked out at 0.54 µM on MMP 1 (setting [1]) and 0.0189 µM at MMP 9 (human neutrophil gelatinase B). Further, the inhibition at 1 µM on TACE came out at 29.2%.

On to `CCOc1ccc(S(=O)(=O)C(C)(Cc2ccc(OCCN(CC)CC)cc2)C(=O)NO)cc1` (stereo not drawn) [Example 25, N-Hydroxy-2-(4-ethoxy-benzenesulfonyl)-2-methyl-3-[4-(2-N,N-diethylamino-ethoxy)-phenyl]-propionamide], for which the values for the IC50 at MMP 9 (human neutrophil gelatinase B) and on MMP 13 were 0.0267 µM and 0.008 µM, respectively.

With `CCCCOc1ccc(S(=O)(=O)C(C)(Cc2ccc(OCCN3CCCCC3)cc2)C(=O)NO)cc1` (stereo not drawn) [Example 28, N-Hydroxy-2-(4-n-butoxy-benzenesulfonyl)-2-methyl-3-[4-(2-piperidin-1-yl-ethoxy)-phenyl]-propionamide], on MMP 13, the IC50 is 0.002 µM. The inhibition at 1 µM at TACE is 30.6%.

With `CC(C)=CCC(CC=C(C)C)(C(=O)NO)S(=O)(=O)c1ccc(C)cc1` [Example 42, 5-Methyl-2-(3-methyl-but-2-enyl)-2-(toluene-4-sulfonyl)-hex-4-enoic acid hydroxyamide], the IC50 at MMP 9 (human neutrophil gelatinase B) worked out at 0.0509 µM; at MMP 13, 0.0062 µM.

Turning to `CC(Cc1ccc(OCCN2CCCCC2)cc1)(C(=O)NO)S(=O)(=O)c1cccs1` (stereo not drawn) [Example 45], the inhibition at 1 µM stood at 49% at MMP 1 (read-out: MMP 1 % inhibition at 1 micromolar, 1 micromolar, human recombinant fibroblast collagenase); 48.6% on MMP 9 (human neutrophil gelatinase B); 20.4% at TACE.

Regarding `COc1ccc(S(=O)(=O)C(C)(Cc2ccc3ccccc3c2)C(=O)NO)cc1` (stereo not drawn) [Example 52, N-hydroxy-2-(4-methoxy-benzenesulfonyl)-2-methyl-3-naphthalen-2-yl-propionamide], the IC50 stood at 0.139 µM at MMP 1 (setting [1]) and 0.0079 µM on MMP 9 (human neutrophil gelatinase B).

Take `COc1ccc(S(=O)(=O)C(CCCCOc2ccccc2)(Cc2cccnc2)C(=O)NO)cc1` (stereo not drawn) [Example 68, 2-(4-Methoxy-benzenesulfonyl)-6-phenoxy-2-pyridin-3-ylmethyl-hexanoic acid hydroxyamide]: the IC50 on MMP 9 (human neutrophil gelatinase B) stood at 0.029 µM; on MMP 13, 0.027 µM; on TACE it was 0.522 µM.

On to `CC#CCC(CC#CC)(C(=O)NO)S(=O)(=O)c1ccc(F)cc1` [Example 78, 2-(4-Fluoro-benzenesulfonyl)-2-but-2-ynyl-hex-4-ynoic acid hydroxyamide], for which the IC50 was 0.56 µM on MMP 9 (human neutrophil gelatinase B) and 0.034 µM on MMP 13. Further, the inhibition at 1 µM on TACE turned out to be 24.6%.

As to `COc1ccc(S(=O)(=O)C(CC=C(C)C)(CC=C(C)C)C(=O)NO)cc1` [Example 79, 2-(4-Methoxy-benzenesulfonyl)-5-methyl-2-(3-methyl-but-2-enyl)-hex-4-enoic acid hydroxyamide], the IC50 worked out at 0.025 µM on MMP 1 (setting [1]), 0.00054 µM at MMP 9 (human neutrophil gelatinase B) and 0.805 µM at TACE.

`COc1ccc(S(=O)(=O)C(C)(Cc2ccc(OCCN3CCOCC3)cc2)C(=O)NO)cc1` (stereo not drawn) [Example 82, 2-(4-methoxy-benzenesulfonyl)-2-methyl-3-[4-(2-morpholin-4-yl-ethoxy)-phenyl]-propionic hydroxyamide hydrochloride]: the results for the IC50 on MMP 1 (setting [1]) and at MMP 9 (human neutrophil gelatinase B) were 0.238 µM and 0.0194 µM, respectively. Moreover, the inhibition at 1 µM at TACE was 34.5%.

For the compound `COc1ccc(S(=O)(=O)C2(C(=O)NO)CCN(Cc3ccc(-c4ccccc4)cc3)CC2)cc1` [Example 88, 1-Biphenyl-4-ylmethyl-4-(4-methoxy-benzenesulfonyl)piperidine-4-carboxylic acid hydroxamide], the IC50 on MMP 1 was determined as 1.33 µM; on MMP 9, 0.0128 µM.

Turning to `COc1ccc(S(=O)(=O)C2(C(=O)NO)CCN(CCCc3ccccc3)CC2)cc1` [Example 91, 4-(4-methoxy-benzenesulfonyl)-1-(3-phenyl-propyl)-piperidine-4-carboxylic acid hydroxyamide], the IC50 on MMP 1 (setting [1]) was 1.93 µM; on MMP 9 (human neutrophil gelatinase B) it was 0.0133 µM; on TACE, 0.503 µM.

Take `COc1ccc(S(=O)(=O)C2(C(=O)NO)CCN(C3CCCCCCC3)CC2)cc1` [Example 94, 1-Cyclooctyl-4-(4-methoxy-benzenesulfonyl)-piperidine-4-carboxylic acid hydroxyamide]: the figures for the IC50 at MMP 1 (setting [1]) and on MMP 9 (human neutrophil gelatinase B) were 2.64 µM and 0.138 µM, respectively.

Take `CCCCOc1ccc(S(=O)(=O)C2(C(=O)NO)CCN(Cc3ccccc3)CC2)cc1` [Example 98, 1-Benzyl-4-(4-butoxy-benzenesulfonyl)-piperidine-4-carboxylic acid hydroxyamide]: the IC50 on MMP 13 was found to be 0.0012 µM.

Take `CCCCOc1ccc(S(=O)(=O)C2(C(=O)NO)CCN(Cc3ccc(OC)cc3)CC2)cc1` [Example 104, 4-(4-n-Butoxy-benzenesulfonyl)-1-(4-methoxy-benzyl)-piperidine-4-carboxylic acid hydroxyamide]: the IC50 was determined as 0.0014 µM on MMP 13 and 0.208 µM on TACE.

As to `CCCCOc1ccc(S(=O)(=O)C2(C(=O)NO)CCN(CCCOc3ccccc3)CC2)cc1` [Example 106, 4-(4-n-Butoxy-benzenesulfonyl)-1-(3-phenoxy-propyl)-piperidine-4-carboxylic acid hydroxyamide], the IC50 on MMP 1 (setting [1]) was 3.79 µM; on MMP 9 (human neutrophil gelatinase B) it was 0.0051 µM; on TACE it was 0.631 µM.

Take `CCCCOc1ccc(S(=O)(=O)C2(C(=O)NO)CCN(CCOc3ccccc3)CC2)cc1` [Example 108, 4-(4-n-Butoxy-benzenesulfonyl)-1-(2-phenoxy-ethyl)-piperidine-4-carboxylic acid hydroxyamide]: the IC50 at MMP 1 (setting [1]) worked out at 2.9 µM; on MMP 9 (human neutrophil gelatinase B), 0.0054 µM; on TACE, 0.27 µM.

As usually defined, the inhibition is the drop in the measured response relative to a control, in per cent.
